How the values were obtained:
[1] = system: Hepatitis C virus; conditions: substance P aerosol combined with standard drug treatment of ribavirin and interferon alpha
[2] = system: A/Hong Kong 8/68 influenza virus; design: species or system C57BL/6 mice; conditions: mouse, in vivo
[3] = system: lung protein alterations; experiment: Acute formalin exposure lung injury model, lung protein analysis by two-dimensional gel electrophoresis; format: in vivo, Fischer 344 rats
Experimental: In a third system, we sought to determine if Sar^9, Met (O2)^11-substance P-treated Fischer 344 rats who were exposed to 67 mg/m^3 […] aerosolize formalin for 1.5 minutes would attenuate lung protein alterations. At approximately 42 minutes post-formalin or air exposure, rat lungs were removed for protein analysis. […] Among these 71 proteins were fibrinogen-related proteins.

| Compound | deleterious effects of ribavirin and interferon alpha (loss of appetite, nausea, vomiting, weight loss) [1] | development of influenza symptoms (decreased body mass, fever, dehydration, nasal discharge) [2] | leukotriene B4 levels relative to A/Hong Kong 8/68 virus only mice [2] | lung cell counts after broncho-alveolar lavage [2] | signs of lung injury (electron micrographs) [2] | number of lung proteins whose formalin-mediated abundance changes were attenuated ([3]; 67 mg/m^3 aerosolized formalin for 1.5 minutes, lungs removed about 42 minutes post-exposure, includes fibrinogen-related proteins) | lung fibrinogen concentrations after acute formalin exposure (proteomic analyses) ([3]; acute lung injury model) |
| --- | --- | --- | --- | --- | --- | --- | --- |
| CSCC[C@H](NC(=O)[C@H](CC(C)C)NC(=O)CNC(=O)[C@H](Cc1ccccc1)NC(=O)[C@H](Cc1ccccc1)NC(=O)[C@H](CCC(N)=O)NC(=O)[C@H](CCC(N)=O)NC(=O)[C@@H]1CCCN1C(=O)[C@H](CCCCN)NC(=O)[C@@H]1CCCN1C(=O)[C@@H](N)CCCN=C(N)N)C(N)=O [substance P] | eliminated |  |  |  |  |  |  |
| Sar^9, Met (O2)^11-substance P |  | did not develop influenza symptoms | 33% | normal lung cell counts | did not observe any signs of lung injury | 71 proteins | preserve fibrinogen concentrations |
